Assay results published in ChEMBL document CHEMBL4715697, “Synthesis and biological activity of benzamide DNA minor groove binders” (2016).

What was measured:
Assay type in all cases: functional
NCI-H522 [1] = test: Growth inhibition of human NCI-H522 cells assessed as cell growth at 0.1 uM incubated for 48 hrs by sulforhodamine B assay relative to control; settings: read-out: Activity
ACHN = test: Growth inhibition of human ACHN cells assessed as cell growth at 1 uM incubated for 48 hrs by sulforhodamine B assay relative to control; settings: read-out: Activity
UACC-257 = test: Growth inhibition of human UACC-257 cells incubated for 48 hrs by sulforhodamine B assay
MDA-MB-231 [2] = test: Growth inhibition of human MDA-MB-231 cells assessed as cell growth at 1 uM incubated for 48 hrs by sulforhodamine B assay relative to control; settings: read-out: Activity
SK-OV-3 = test: Growth inhibition of human SK-OV-3 cells assessed as cell growth at 100 uM incubated for 48 hrs by sulforhodamine B assay relative to control; settings: read-out: Activity
TK-10 = test: Growth inhibition of human TK-10 cells assessed as cell growth at 0.01 uM incubated for 48 hrs by sulforhodamine B assay relative to control; settings: read-out: Activity
Malme-3M = test: Growth inhibition of human Malme-3M cells incubated for 48 hrs by sulforhodamine B assay
HCT-15 = test: Growth inhibition of human HCT-15 cells assessed as cell growth at 0.01 uM incubated for 48 hrs by sulforhodamine B assay relative to control; settings: read-out: Activity
NCI-H460 = test: Growth inhibition of human NCI-H460 cells assessed as cell growth at 1 uM incubated for 48 hrs by sulforhodamine B assay relative to control; settings: read-out: Activity
Hs-578T [3] = test: Growth inhibition of human Hs-578T cells assessed as cell growth at 100 uM incubated for 48 hrs by sulforhodamine B assay relative to control; settings: read-out: Activity
OVCAR-8 = test: Growth inhibition of human OVCAR-8 cells incubated for 48 hrs by sulforhodamine B assay
NCI-H23 = test: Growth inhibition of human NCI-H23 cells assessed as cell growth at 100 uM incubated for 48 hrs by sulforhodamine B assay relative to control; settings: read-out: Activity
MDA-MB-231 [4] = test: Growth inhibition of human MDA-MB-231 cells assessed as cell growth at 0.01 uM incubated for 48 hrs by sulforhodamine B assay relative to control; settings: read-out: Activity
K562 [5] = test: Growth inhibition of human K562 cells assessed as cell growth at 100 uM incubated for 48 hrs by sulforhodamine B assay relative to control; settings: read-out: Activity
COLO 205 [6] = test: Growth inhibition of human COLO 205 cells assessed as cell growth at 1 uM incubated for 48 hrs by sulforhodamine B assay relative to control; settings: read-out: Activity
CCRF-CEM = test: Growth inhibition of human CCRF-CEM cells assessed as cell growth at 100 uM incubated for 48 hrs by sulforhodamine B assay relative to control; settings: read-out: Activity
BT-549 = test: Growth inhibition of human BT-549 cells assessed as cell growth at 100 uM incubated for 48 hrs by sulforhodamine B assay relative to control; settings: read-out: Activity
NCI-H522 [7] = test: Growth inhibition of human NCI-H522 cells assessed as cell growth at 0.01 uM incubated for 48 hrs by sulforhodamine B assay relative to control; settings: read-out: Activity
K562 [8] = test: Growth inhibition of human K562 cells incubated for 48 hrs by sulforhodamine B assay
NCI/ADR-RES = test: Growth inhibition of human NCI/ADR-RES cells assessed as cell growth at 1 uM incubated for 48 hrs by sulforhodamine B assay relative to control; settings: read-out: Activity
OVCAR-3 = test: Growth inhibition of human OVCAR-3 cells assessed as cell growth at 0.01 uM incubated for 48 hrs by sulforhodamine B assay relative to control; settings: read-out: Activity
PC-3 = test: Growth inhibition of human PC-3 cells incubated for 48 hrs by sulforhodamine B assay
U-251 = test: Growth inhibition of human U-251 cells assessed as cell growth at 0.1 uM incubated for 48 hrs by sulforhodamine B assay relative to control; settings: read-out: Activity
SF-539 = test: Growth inhibition of human SF-539 cells assessed as cell growth at 0.01 uM incubated for 48 hrs by sulforhodamine B assay relative to control; settings: read-out: Activity
OVCAR-4 = test: Growth inhibition of human OVCAR-4 cells assessed as cell growth at 100 uM incubated for 48 hrs by sulforhodamine B assay relative to control; settings: read-out: Activity
MDA-MB-435 = test: Growth inhibition of human MDA-MB-435 cells assessed as cell growth at 1 uM incubated for 48 hrs by sulforhodamine B assay relative to control; settings: read-out: Activity
786-0 = test: Growth inhibition of human 786-0 cells incubated for 48 hrs by sulforhodamine B assay
MCF7 = test: Growth inhibition of human MCF7 cells assessed as cell growth at 100 uM incubated for 48 hrs by sulforhodamine B assay relative to control; settings: read-out: Activity
SW-620 = test: Growth inhibition of human SW-620 cells assessed as cell growth at 1 uM incubated for 48 hrs by sulforhodamine B assay relative to control; settings: read-out: Activity
Hs-578T [9] = test: Growth inhibition of human Hs-578T cells assessed as cell growth at 0.01 uM incubated for 48 hrs by sulforhodamine B assay relative to control; settings: read-out: Activity
MOLT-4 = test: Growth inhibition of human MOLT-4 cells assessed as cell growth at 0.1 uM incubated for 48 hrs by sulforhodamine B assay relative to control; settings: read-out: Activity
COLO 205 [10] = test: Growth inhibition of human COLO 205 cells assessed as cell growth at 0.1 uM incubated for 48 hrs by sulforhodamine B assay relative to control; settings: read-out: Activity
HT-29 = test: Growth inhibition of human HT-29 cells assessed as cell growth at 0.1 uM incubated for 48 hrs by sulforhodamine B assay relative to control; settings: read-out: Activity
SK-MEL-2 = test: Growth inhibition of human SK-MEL-2 cells incubated for 48 hrs by sulforhodamine B assay
[11] = read-out: LC50 (the source's name)
[12] = read-out: pLC50 (the source's name) (converted)

CC(=O)Nc1cc(CCl)cc(NC(=O)c2ccc(C(=O)Nc3cccc(NC(=O)CCCN(C)C)c3)cc2)c1
-70%: growth at 100 µM (CCRF-CEM)
27%: growth at 100 µM (MCF7)
103%: growth at 0.01 µM (MDA-MB-231 [4])
94%: growth at 0.01 µM (HCT-15) | growth at 100 µM (BT-549) | growth at 0.1 µM (U-251)
89%: growth at 0.1 µM (NCI-H522 [1]) | growth at 100 µM (OVCAR-4)
> 100 µM: GI50 (UACC-257; read-out: GI50) | LC50 (UACC-257; read-out: LC50) | TGI (UACC-257; read-out: TGI) | GI50 (UACC-257; read-out: pGI50 (converted)) | LC50 (UACC-257; read-out: pLC50 (converted)) | TGI (UACC-257; read-out: pTGI) | GI50 (Malme-3M; read-out: GI50) | LC50 (concentration killing 50% of cells) (Malme-3M; read-out: LC50) | TGI (Malme-3M; read-out: TGI) | GI50 (Malme-3M; read-out: pGI50 (converted)) | LC50 (concentration killing 50% of cells) (Malme-3M; read-out: pLC50 (converted)) | TGI (Malme-3M; read-out: pTGI) | GI50 (OVCAR-8; read-out: GI50) | CC50 (OVCAR-8; [11]) | TGI (OVCAR-8; read-out: TGI) | GI50 (OVCAR-8; read-out: pGI50 (converted)) | CC50 (OVCAR-8; [12]) | TGI (OVCAR-8; read-out: pTGI) | GI50 (K562 [8]; read-out: GI50) | CC50 (K562 [8]; [11]) | TGI (K562 [8]; read-out: TGI) | GI50 (K562 [8]; read-out: pGI50 (converted)) | CC50 (K562 [8]; [12]) | TGI (K562 [8]; read-out: pTGI) | GI50 (PC-3; read-out: GI50) | CC50 (PC-3; [11]) | TGI (PC-3; read-out: TGI) | GI50 (PC-3; read-out: pGI50 (converted)) | CC50 (PC-3; [12]) | TGI (PC-3; read-out: pTGI) | GI50 (786-0; read-out: GI50) | LC50 (786-0; read-out: LC50) | TGI (786-0; read-out: TGI) | GI50 (786-0; read-out: pGI50 (converted)) | LC50 (786-0; read-out: pLC50 (converted)) | TGI (786-0; read-out: pTGI) | GI50 (SK-MEL-2; read-out: GI50) | CC50 (SK-MEL-2; [11]) | TGI (SK-MEL-2; read-out: TGI) | GI50 (SK-MEL-2; read-out: pGI50 (converted)) | CC50 (SK-MEL-2; [12]) | TGI (SK-MEL-2; read-out: pTGI)
95%: growth at 1 µM (NCI/ADR-RES) | growth at 0.1 µM (MOLT-4)
79%: growth at 100 µM (NCI-H23)
107%: growth at 100 µM (Hs-578T [3]) | growth at 1 µM (SW-620)
101%: growth at 0.1 µM (HT-29)
108%: growth at 0.1 µM (COLO 205 [10])
115%: growth at 0.01 µM (Hs-578T [9])
104%: growth at 1 µM (MDA-MB-231 [2])
96%: growth at 1 µM (ACHN) | growth at 0.01 µM (NCI-H522 [7])
97%: growth at 1 µM (MDA-MB-435)
99%: growth at 0.01 µM (TK-10)
98%: growth at 0.01 µM (SF-539)
109%: growth at 100 µM (SK-OV-3) | growth at 1 µM (NCI-H460) | growth at 1 µM (COLO 205 [6])
106%: growth at 100 µM (K562 [5])
112%: growth at 0.01 µM (OVCAR-3)
